Results reported in ChEMBL document CHEMBL3991601, “The target landscape of clinical kinase drugs” (Science, 2017).
Activity calls are given as the source filed them. For most assays here, no stated cut-off is given here; in the data, actives have a measured Kd and inactives only a lower limit.

Molecular target: T1, Serine/threonine-protein kinase ULK1 (Homo sapiens, UniProt O75385)
T1 sequence (O75385 whole entry): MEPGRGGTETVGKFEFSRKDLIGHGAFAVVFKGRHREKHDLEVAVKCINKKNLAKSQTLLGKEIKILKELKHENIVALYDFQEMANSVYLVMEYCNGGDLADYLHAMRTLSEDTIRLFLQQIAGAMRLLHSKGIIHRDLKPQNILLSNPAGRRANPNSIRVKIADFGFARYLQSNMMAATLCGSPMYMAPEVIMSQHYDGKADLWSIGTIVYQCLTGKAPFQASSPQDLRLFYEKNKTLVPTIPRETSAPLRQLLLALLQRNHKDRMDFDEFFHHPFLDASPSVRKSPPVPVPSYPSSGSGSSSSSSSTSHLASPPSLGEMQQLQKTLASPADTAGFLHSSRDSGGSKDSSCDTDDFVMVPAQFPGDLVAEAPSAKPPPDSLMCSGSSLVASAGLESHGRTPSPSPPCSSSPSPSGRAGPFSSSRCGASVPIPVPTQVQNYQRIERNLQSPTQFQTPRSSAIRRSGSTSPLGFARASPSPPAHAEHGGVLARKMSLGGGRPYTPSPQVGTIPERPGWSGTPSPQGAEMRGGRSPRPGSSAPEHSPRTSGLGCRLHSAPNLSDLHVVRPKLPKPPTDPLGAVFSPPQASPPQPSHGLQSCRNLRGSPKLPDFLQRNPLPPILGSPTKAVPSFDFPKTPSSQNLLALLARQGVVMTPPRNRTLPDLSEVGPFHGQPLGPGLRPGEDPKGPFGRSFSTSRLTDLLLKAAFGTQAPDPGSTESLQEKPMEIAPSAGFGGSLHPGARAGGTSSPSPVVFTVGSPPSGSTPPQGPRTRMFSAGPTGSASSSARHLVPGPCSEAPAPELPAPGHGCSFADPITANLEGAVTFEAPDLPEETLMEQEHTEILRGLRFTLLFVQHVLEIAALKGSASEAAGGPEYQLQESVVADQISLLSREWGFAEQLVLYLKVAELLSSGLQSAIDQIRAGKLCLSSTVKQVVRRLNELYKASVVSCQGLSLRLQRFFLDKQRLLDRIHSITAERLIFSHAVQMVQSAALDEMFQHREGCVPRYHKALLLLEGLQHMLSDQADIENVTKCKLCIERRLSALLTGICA

Question: With `CNC(=O)c1cc(Oc2ccc(NC(=O)Nc3ccc(Cl)c(C(F)(F)F)c3)c(F)c2)ccn1` [REGORAFENIB] as the molecule, how does the Kd read?
Answer: The Kd was > 30 µM (inactive).

Question: How did the Kd turn out when `COc1cc(OC)c(/C=C/S(=O)(=O)Cc2ccc(OC)c(NCC(=O)O)c2)c(OC)c1` [RIGOSERTIB] was run?
Answer: The Kd was > 30 µM (inactive).

Question: Which Kd does the source give for `CNC(=O)CN1CCC(Oc2cc3c(Nc4cccc(Cl)c4F)ncnc3cc2OC)CC1` [SAPITINIB] here?
Answer: The Kd was > 30 µM (inactive).

Question: Which Kd does the source give for `C[C@@H](c1ccc2nccn2c1)n1nnc2ncc(-c3cnn(C)c3)nc21` [SAVOLITINIB] here?
Answer: Its Kd is > 30 µM (inactive).

Molecular target: T2, MAP kinase-activated protein kinase 5 (Homo sapiens, UniProt Q8IW41)
T2 sequence (Q8IW41 whole entry): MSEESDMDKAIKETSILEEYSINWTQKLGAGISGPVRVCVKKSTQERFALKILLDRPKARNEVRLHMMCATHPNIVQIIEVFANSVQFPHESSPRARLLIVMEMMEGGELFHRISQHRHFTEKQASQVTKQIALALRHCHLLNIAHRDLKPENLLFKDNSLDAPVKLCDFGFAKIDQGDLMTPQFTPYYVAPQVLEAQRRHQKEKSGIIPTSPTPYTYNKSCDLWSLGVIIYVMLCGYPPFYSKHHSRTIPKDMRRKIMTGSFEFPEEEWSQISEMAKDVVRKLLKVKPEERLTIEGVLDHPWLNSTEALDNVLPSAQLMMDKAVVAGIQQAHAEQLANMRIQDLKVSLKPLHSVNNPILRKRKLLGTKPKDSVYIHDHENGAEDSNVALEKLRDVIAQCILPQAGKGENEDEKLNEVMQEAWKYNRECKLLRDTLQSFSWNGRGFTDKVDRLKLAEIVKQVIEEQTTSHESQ

Question: With `CNC(=O)c1cc(Oc2ccc(NC(=O)Nc3ccc(Cl)c(C(F)(F)F)c3)c(F)c2)ccn1` [REGORAFENIB] as the molecule, how does the Kd read?
Answer: Its Kd is > 30 µM (inactive).

Question: For `COc1cc(OC)c(/C=C/S(=O)(=O)Cc2ccc(OC)c(NCC(=O)O)c2)c(OC)c1` [RIGOSERTIB], which Kd is on record?
Answer: The Kd was > 30 µM (inactive).

Question: For `CNC(=O)CN1CCC(Oc2cc3c(Nc4cccc(Cl)c4F)ncnc3cc2OC)CC1` [SAPITINIB], which Kd is on record?
Answer: Its Kd is > 30 µM (inactive).

Question: `C[C@@H](c1ccc2nccn2c1)n1nnc2ncc(-c3cnn(C)c3)nc21` [SAVOLITINIB] was tested. Which Kd did it give?
Answer: The Kd was > 30 µM (inactive).

Molecular target: Calcium/calmodulin-dependent protein kinase kinase 2 (Homo sapiens, UniProt Q96RR4)
Sequence (Q96RR4 whole entry): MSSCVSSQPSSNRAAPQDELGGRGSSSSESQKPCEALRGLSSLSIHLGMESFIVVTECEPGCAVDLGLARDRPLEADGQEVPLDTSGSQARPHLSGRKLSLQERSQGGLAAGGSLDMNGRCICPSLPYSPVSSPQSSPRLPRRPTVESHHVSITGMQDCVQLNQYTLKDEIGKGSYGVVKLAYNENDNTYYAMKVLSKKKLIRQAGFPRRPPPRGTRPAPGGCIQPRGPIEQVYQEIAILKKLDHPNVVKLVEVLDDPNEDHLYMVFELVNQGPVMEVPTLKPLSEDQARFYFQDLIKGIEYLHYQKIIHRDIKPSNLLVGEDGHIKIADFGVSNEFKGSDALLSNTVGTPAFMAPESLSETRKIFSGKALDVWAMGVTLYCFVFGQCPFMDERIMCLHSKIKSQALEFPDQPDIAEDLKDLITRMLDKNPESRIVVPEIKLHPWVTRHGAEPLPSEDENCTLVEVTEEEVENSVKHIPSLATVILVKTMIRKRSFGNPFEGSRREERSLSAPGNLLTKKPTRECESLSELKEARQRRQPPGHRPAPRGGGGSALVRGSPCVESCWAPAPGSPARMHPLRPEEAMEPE

Question: For `CNC(=O)c1cc(Oc2ccc(NC(=O)Nc3ccc(Cl)c(C(F)(F)F)c3)c(F)c2)ccn1` [REGORAFENIB], which Kd is on record?
Answer: The Kd was > 30 µM (inactive).

Question: `COc1cc(OC)c(/C=C/S(=O)(=O)Cc2ccc(OC)c(NCC(=O)O)c2)c(OC)c1` [RIGOSERTIB] was tested. Which Kd did it give?
Answer: Its Kd is > 30 µM (inactive).

Question: With `CNC(=O)CN1CCC(Oc2cc3c(Nc4cccc(Cl)c4F)ncnc3cc2OC)CC1` [SAPITINIB] as the molecule, how does the Kd read?
Answer: Its Kd is > 30 µM (inactive).

Question: `C[C@@H](c1ccc2nccn2c1)n1nnc2ncc(-c3cnn(C)c3)nc21` [SAVOLITINIB] was tested. Which Kd did it give?
Answer: Its Kd is > 30 µM (inactive).

Molecular target: Insulin-like growth factor 1 receptor (Homo sapiens, UniProt P08069)
Sequence (P08069 31-736 limits assumed): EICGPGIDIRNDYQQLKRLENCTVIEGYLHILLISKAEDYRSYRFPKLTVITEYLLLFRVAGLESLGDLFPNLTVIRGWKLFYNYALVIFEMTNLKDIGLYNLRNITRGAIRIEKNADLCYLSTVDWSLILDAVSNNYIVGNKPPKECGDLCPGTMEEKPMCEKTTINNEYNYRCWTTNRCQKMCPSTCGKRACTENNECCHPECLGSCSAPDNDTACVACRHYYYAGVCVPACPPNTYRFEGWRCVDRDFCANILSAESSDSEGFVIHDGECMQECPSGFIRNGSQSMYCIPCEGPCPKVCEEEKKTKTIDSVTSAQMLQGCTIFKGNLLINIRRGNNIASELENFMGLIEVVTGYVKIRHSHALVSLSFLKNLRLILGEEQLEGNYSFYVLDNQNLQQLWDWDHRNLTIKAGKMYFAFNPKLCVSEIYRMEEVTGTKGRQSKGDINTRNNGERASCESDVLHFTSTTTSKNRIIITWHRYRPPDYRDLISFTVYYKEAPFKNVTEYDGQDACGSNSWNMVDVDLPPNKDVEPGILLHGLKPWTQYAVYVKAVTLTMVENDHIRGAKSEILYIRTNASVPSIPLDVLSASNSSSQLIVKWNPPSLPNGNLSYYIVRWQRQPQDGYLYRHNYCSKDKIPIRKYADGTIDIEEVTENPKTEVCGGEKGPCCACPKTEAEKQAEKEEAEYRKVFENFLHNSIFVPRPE
Sequence (P08069 741-1367 limits assumed): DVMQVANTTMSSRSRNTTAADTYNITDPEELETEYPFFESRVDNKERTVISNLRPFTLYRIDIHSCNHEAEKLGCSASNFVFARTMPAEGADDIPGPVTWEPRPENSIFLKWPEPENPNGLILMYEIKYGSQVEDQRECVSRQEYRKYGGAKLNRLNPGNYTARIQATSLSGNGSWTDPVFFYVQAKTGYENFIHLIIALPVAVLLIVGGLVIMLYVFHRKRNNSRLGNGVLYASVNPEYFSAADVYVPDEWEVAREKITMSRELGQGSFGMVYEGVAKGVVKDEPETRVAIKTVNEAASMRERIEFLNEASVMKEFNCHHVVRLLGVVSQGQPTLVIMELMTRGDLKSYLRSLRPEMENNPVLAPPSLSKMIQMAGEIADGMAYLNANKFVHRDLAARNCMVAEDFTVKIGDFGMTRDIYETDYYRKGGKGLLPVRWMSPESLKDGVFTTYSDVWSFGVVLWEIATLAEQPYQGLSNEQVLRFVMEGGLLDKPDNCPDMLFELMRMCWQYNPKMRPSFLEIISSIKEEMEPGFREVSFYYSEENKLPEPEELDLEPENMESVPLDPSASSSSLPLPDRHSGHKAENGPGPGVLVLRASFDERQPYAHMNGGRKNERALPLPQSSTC

Question: For `CNC(=O)c1cc(Oc2ccc(NC(=O)Nc3ccc(Cl)c(C(F)(F)F)c3)c(F)c2)ccn1` [REGORAFENIB], which Kd is on record?
Answer: Its Kd is > 30 µM (inactive).

Question: How did the Kd turn out when `COc1cc(OC)c(/C=C/S(=O)(=O)Cc2ccc(OC)c(NCC(=O)O)c2)c(OC)c1` [RIGOSERTIB] was run?
Answer: The Kd was > 30 µM (inactive).

Question: Which Kd does the source give for `CNC(=O)CN1CCC(Oc2cc3c(Nc4cccc(Cl)c4F)ncnc3cc2OC)CC1` [SAPITINIB] here?
Answer: Its Kd is > 30 µM (inactive).

Question: Which Kd does the source give for `C[C@@H](c1ccc2nccn2c1)n1nnc2ncc(-c3cnn(C)c3)nc21` [SAVOLITINIB] here?
Answer: The Kd was > 30 µM (inactive).

Molecular target: T3, Phosphorylase b kinase gamma catalytic chain, liver/testis isoform (Homo sapiens, UniProt P15735)
T3 sequence (P15735 whole entry): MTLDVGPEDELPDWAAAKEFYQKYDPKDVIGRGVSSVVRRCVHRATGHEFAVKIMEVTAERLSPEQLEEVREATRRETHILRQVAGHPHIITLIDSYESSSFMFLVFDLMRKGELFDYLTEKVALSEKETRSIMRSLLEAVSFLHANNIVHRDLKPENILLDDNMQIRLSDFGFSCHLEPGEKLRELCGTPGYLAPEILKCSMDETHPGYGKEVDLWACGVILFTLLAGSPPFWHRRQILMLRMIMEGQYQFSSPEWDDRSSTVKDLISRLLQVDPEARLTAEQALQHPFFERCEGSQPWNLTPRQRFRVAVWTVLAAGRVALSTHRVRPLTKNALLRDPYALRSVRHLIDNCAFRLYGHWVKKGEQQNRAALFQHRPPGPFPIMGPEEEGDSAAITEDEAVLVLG

Question: `CNC(=O)c1cc(Oc2ccc(NC(=O)Nc3ccc(Cl)c(C(F)(F)F)c3)c(F)c2)ccn1` [REGORAFENIB] was tested. Which Kd did it give?
Answer: The Kd was > 30 µM (inactive).

Question: `COc1cc(OC)c(/C=C/S(=O)(=O)Cc2ccc(OC)c(NCC(=O)O)c2)c(OC)c1` [RIGOSERTIB] was tested. Which Kd did it give?
Answer: Its Kd is > 30 µM (inactive).

Question: For `CNC(=O)CN1CCC(Oc2cc3c(Nc4cccc(Cl)c4F)ncnc3cc2OC)CC1` [SAPITINIB], which Kd is on record?
Answer: Its Kd is > 30 µM (inactive).

Question: With `C[C@@H](c1ccc2nccn2c1)n1nnc2ncc(-c3cnn(C)c3)nc21` [SAVOLITINIB] as the molecule, how does the Kd read?
Answer: Its Kd is > 30 µM (inactive).

Molecular target: Focal adhesion kinase 1 (Homo sapiens, UniProt Q05397)
Sequence (Q05397 whole entry): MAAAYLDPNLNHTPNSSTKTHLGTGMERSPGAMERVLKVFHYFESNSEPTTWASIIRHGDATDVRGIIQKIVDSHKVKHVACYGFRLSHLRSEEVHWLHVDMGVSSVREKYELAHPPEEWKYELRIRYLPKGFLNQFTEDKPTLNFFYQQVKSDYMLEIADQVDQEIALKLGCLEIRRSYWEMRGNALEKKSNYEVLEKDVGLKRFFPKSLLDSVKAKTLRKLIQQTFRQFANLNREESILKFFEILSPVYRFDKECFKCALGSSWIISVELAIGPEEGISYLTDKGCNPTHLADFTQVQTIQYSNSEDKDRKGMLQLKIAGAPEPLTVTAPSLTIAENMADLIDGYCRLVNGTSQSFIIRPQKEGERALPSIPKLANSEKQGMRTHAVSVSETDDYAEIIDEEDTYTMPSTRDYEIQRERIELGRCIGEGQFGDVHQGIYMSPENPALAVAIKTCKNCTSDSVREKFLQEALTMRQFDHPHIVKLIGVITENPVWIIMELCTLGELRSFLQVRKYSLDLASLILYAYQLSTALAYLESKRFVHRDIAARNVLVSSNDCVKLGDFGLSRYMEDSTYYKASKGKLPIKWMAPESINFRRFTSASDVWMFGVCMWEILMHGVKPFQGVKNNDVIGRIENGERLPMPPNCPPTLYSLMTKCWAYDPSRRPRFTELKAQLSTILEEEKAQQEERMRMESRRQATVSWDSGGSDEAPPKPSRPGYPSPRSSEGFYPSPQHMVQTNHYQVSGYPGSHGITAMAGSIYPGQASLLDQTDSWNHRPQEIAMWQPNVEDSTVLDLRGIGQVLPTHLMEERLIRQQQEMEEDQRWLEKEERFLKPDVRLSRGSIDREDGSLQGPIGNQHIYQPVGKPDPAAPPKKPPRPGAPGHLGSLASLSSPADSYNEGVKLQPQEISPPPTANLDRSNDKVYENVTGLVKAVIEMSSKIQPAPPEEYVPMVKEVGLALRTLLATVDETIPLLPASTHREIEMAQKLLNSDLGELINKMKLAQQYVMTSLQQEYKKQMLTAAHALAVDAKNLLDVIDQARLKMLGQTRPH

Question: For `CNC(=O)c1cc(Oc2ccc(NC(=O)Nc3ccc(Cl)c(C(F)(F)F)c3)c(F)c2)ccn1` [REGORAFENIB], which Kd is on record?
Answer: The Kd was > 30 µM (inactive).

Question: For `COc1cc(OC)c(/C=C/S(=O)(=O)Cc2ccc(OC)c(NCC(=O)O)c2)c(OC)c1` [RIGOSERTIB], which Kd is on record?
Answer: The Kd was > 30 µM (inactive).

Question: How did the Kd turn out when `CNC(=O)CN1CCC(Oc2cc3c(Nc4cccc(Cl)c4F)ncnc3cc2OC)CC1` [SAPITINIB] was run?
Answer: Its Kd is > 30 µM (inactive).

Question: Which Kd does the source give for `C[C@@H](c1ccc2nccn2c1)n1nnc2ncc(-c3cnn(C)c3)nc21` [SAVOLITINIB] here?
Answer: Its Kd is > 30 µM (inactive).

Molecular target: T4, Rab-like protein 3 (Homo sapiens, UniProt Q5HYI8)
T4 sequence (Q5HYI8 whole entry): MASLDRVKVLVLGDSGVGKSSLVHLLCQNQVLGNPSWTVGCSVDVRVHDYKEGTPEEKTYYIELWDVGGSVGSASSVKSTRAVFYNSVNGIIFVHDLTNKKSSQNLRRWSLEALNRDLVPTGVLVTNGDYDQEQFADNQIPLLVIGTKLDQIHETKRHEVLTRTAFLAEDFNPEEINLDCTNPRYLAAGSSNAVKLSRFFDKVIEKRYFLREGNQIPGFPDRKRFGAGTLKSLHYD

Question: Which Kd does the source give for `CNC(=O)c1cc(Oc2ccc(NC(=O)Nc3ccc(Cl)c(C(F)(F)F)c3)c(F)c2)ccn1` [REGORAFENIB] here?
Answer: Its Kd is > 30 µM (inactive).

Question: Which Kd does the source give for `COc1cc(OC)c(/C=C/S(=O)(=O)Cc2ccc(OC)c(NCC(=O)O)c2)c(OC)c1` [RIGOSERTIB] here?
Answer: Its Kd is > 30 µM (inactive).

Question: How did the Kd turn out when `CNC(=O)CN1CCC(Oc2cc3c(Nc4cccc(Cl)c4F)ncnc3cc2OC)CC1` [SAPITINIB] was run?
Answer: The Kd was > 30 µM (inactive).

Question: Which Kd does the source give for `C[C@@H](c1ccc2nccn2c1)n1nnc2ncc(-c3cnn(C)c3)nc21` [SAVOLITINIB] here?
Answer: The Kd was > 30 µM (inactive).

Molecular target: TGF-beta receptor type-2 (Homo sapiens, UniProt P37173)
Sequence (P37173 whole entry): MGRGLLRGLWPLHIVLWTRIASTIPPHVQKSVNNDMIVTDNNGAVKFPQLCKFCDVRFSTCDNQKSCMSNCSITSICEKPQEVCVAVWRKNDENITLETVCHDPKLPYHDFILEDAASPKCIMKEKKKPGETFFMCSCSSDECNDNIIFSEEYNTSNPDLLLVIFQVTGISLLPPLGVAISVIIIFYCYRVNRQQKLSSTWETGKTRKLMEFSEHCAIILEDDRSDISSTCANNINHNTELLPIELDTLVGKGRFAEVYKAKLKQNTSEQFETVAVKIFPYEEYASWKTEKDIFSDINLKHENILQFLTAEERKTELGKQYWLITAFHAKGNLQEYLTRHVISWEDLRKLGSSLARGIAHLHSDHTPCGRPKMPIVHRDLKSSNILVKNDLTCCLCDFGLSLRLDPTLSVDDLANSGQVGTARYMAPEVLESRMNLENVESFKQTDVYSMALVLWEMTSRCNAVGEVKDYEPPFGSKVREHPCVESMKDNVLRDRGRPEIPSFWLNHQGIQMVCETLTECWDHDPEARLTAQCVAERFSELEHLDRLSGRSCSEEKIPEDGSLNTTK

Question: Which Kd does the source give for `CNC(=O)c1cc(Oc2ccc(NC(=O)Nc3ccc(Cl)c(C(F)(F)F)c3)c(F)c2)ccn1` [REGORAFENIB] here?
Answer: Its Kd is > 30 µM (inactive).

Question: Which Kd does the source give for `COc1cc(OC)c(/C=C/S(=O)(=O)Cc2ccc(OC)c(NCC(=O)O)c2)c(OC)c1` [RIGOSERTIB] here?
Answer: The Kd was > 30 µM (inactive).

Question: Which Kd does the source give for `CNC(=O)CN1CCC(Oc2cc3c(Nc4cccc(Cl)c4F)ncnc3cc2OC)CC1` [SAPITINIB] here?
Answer: Its Kd is > 30 µM (inactive).

Question: With `C[C@@H](c1ccc2nccn2c1)n1nnc2ncc(-c3cnn(C)c3)nc21` [SAVOLITINIB] as the molecule, how does the Kd read?
Answer: The Kd was > 30 µM (inactive).
